In brackets after ≈: the same amount, converted by molar mass. Like-named read-outs stand apart in the source and are kept apart here. Marks after values point to notes of the source that are not given here.
Experiments:
[1] = cited from earlier work; for bioavailability / fCmax: po
[2] = molecular target: CTX-M-15 (Escherichia coli, UniProt Q9EXV5); test: Competition assay with nitrocefin (IC50); type: biochemical
[3] = cited from earlier work
[4] = test system: Enterobacter aerogenes isolates; test: MIC of cephalosporins alone or with clavulanate/tazobactam; type: cell-based; settings: Klebsiella aerogenes, clavulanate 2:1, tazobactam 4 μg/mL
[5] = test system: AECO001; test: MIC of cephalosporins (Table 16); type: cell-based
[6] = test system: Klebsiella pneumoniae isolates; test: MIC of cephalosporins alone or with clavulanate/tazobactam; type: cell-based; settings: clavulanate 2:1, tazobactam 4 μg/mL
[7] = test system: Citrobacter freundii isolates; test: as above; type: cell-based; settings: clavulanate 2:1, tazobactam 4 μg/mL
[8] = test system: Escherichia coli isolates; test: as above; type: cell-based; settings: clavulanate 2:1, tazobactam 4 μg/mL
[9] = test system: Klebsiella oxytoca isolates; test: as above; type: cell-based; settings: clavulanate 2:1, tazobactam 4 μg/mL
[10] = test system: CTX-M-15 Strain; test: MIC of cephalosporins without and with CLV (Table 16); type: cell-based; settings: for MIC: read-out: MIC CTX-M-15 Strain − CLV; for MIC CTX-M-15 Strain + CLV: with CLV
[11] = test system: Enterobacter cloacae isolates; test: MIC of cephalosporins alone or with clavulanate/tazobactam; type: cell-based; settings: clavulanate 2:1, tazobactam 4 μg/mL
[12] = test system: ESBL Escherichia coli isolates; test: MIC against isolates analyzed in time-kill experiments; type: cell-based
[13] = test system: ESBL Klebsiella pneumoniae isolates; test: Killing kinetics (time-kill); type: cell-based; settings: 8X MIC
[14] = test system: ESBL Klebsiella pneumoniae isolates; test: MIC against isolates analyzed in time-kill experiments; type: cell-based
[15] = test system: 385 Escherichia coli and 126 Klebsiella pneumoniae isolates; test: MIC, MIC50 and MIC90 by reference broth microdilution against 511 UTI/bloodstream isolates (USA and Europe 2014-2015); type: cell-based; settings: 511 isolates
[16] = test system: E. coli clinical isolate expressing the ESBL CTX-M-15; type: in vivo, mouse; settings: 4 mg/kg, q4 hr
[17] = test system: ESBL Escherichia coli isolates; test: Killing kinetics (time-kill); type: cell-based; settings: 8X MIC
[18] = test system: Escherichia coli isolates with an ESBL-phenotype; test: In vitro MIC90 of a panel of approved antibiotics, US surveillance program; type: cell-based; settings: Escherichia coli; E. coli (n = 124), ESBL-phenotype; read-out: MIC90
[19] = test system: COCC1=C(C(=O)O)N2C(=O)[C@@H](NC(=O)/C(=N\OC)c3csc(N)n3)[C@H]2SC1; test: purified protein, by the assay type; settings: other: CTX-M-15-mediated hydrolysis; pH 7.0
[20] = test system: C=CC1=C(C(=O)O)N2C(=O)[C@@H](NC(=O)/C(=N\OCC(=O)O)c3csc(N)n3)[C@H]2SC1; test: purified protein, by the assay type; settings: other: CTX-M-15-mediated hydrolysis; pH 7.0

Chain of CTX-M-15 (Q9EXV5 entry or part of it): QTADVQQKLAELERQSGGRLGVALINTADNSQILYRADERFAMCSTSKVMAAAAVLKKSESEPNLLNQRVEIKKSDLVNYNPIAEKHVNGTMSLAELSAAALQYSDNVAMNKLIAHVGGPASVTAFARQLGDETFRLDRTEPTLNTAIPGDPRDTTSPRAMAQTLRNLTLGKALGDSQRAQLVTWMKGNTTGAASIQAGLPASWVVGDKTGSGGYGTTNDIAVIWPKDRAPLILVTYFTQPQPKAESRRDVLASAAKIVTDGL

Molecule: C=CC1=C(C(=O)O)N2C(=O)[C@@H](NC(=O)/C(=N\OCC(=O)O)c3csc(N)n3)[C@H]2SC1 [Cefixime, cefixime]
- Mean unbound plasma concentration following one elimination half-life ([1]; for highest plasma concentration from previous row): 0.65 (400 mg) μg/mL
- Mean Cmax ([1]; in vivo, 200 mg): 2000 ng/mL
- Mean fCmax ([1]; in vivo, 200 mg): 0.7 µg/mL
- Mean Cmax ([1]; in vivo, 400 mg): 3700 ng/mL
- Mean fCmax ([1]; in vivo, 400 mg): 1.3 µg/mL
- bioavailability ([1]; in vivo): 40-90%
- fCmax ([1]; in vivo): 2.7 µg/mL
- Elimination half-life ([1]; plasma): 3-4^b h
- IC50 [2]: 20 µM
- Protein binding (% bound) ([3]; serum): 65 (serum) % bound
- MIC ([4]; AEAE1027 (CTX-M-14)): 8 µg/mL
- MIC ([4]; AEAE1029 (CTX-M-15)): > 64 µg/mL
- MIC [5]: 1 µg/mL
- MIC ([6]; AKPN1159 (SHV-12)): 32 µg/mL
- MIC ([6]; AKPN1161 (SHV-7)): 32 µg/mL
- MIC ([6]; AKPN1162 (CTX-M-15, SHV-12)): > 64 µg/mL
- MIC ([6]; AKPN1166 (CTX-M-14, SHV-12)): > 64 µg/mL
- MIC ([6]; AKPN1167 (SHV-2)): 8 µg/mL
- MIC ([7]; ACFR1034 (CTX-M-15, TEM-OSBL)): > 64 µg/mL
- MIC ([7]; ACFR1035 (CTX-M-3, TEM-OSBL)): > 64 µg/mL
- MIC ([8]; AECO001 (no ESBL)): 1 µg/mL
- MIC ([8]; AECO1078 (CTX-M-15)): > 64 µg/mL
- MIC ([8]; AECO1157 (CTX-M-15, TEM-OSBL)): > 64 µg/mL
- MIC ([8]; AECO1159 (CTX-M-15)): > 64 µg/mL
- MIC ([8]; AECO1169 (CTX-M-1, TEM-OSBL)): 16 µg/mL
- MIC ([8]; AECO1172 (CTX-M-14)): 16 µg/mL
- MIC ([9]; AKOX1005 (SHV-2, TEM-1, DHA-1)): 16 µg/mL
- MIC ([9]; AKOX1009 (CTX-M-15)): > 64 µg/mL
- MIC [10]: > 64 µg/mL
- MIC CTX-M-15 Strain + CLV [10]: 2 µg/mL
- MIC ([11]; AECL1065 (CTX-M-15)): > 64 µg/mL
- MIC ([11]; AECL1067 (CTX-M-3)): > 64 µg/mL

Molecule: CO/N=C(\C(=O)N[C@@H]1C(=O)N2C(C(=O)O)=C(COC(C)=O)CS[C@H]12)c1csc(N)n1 [Cefotaxime, cefotaxime]
- IC50 [2]: 31 µM
- MIC [5]: 0.125 µg/mL

Molecule: COCC1=C(C(=O)O)N2C(=O)[C@@H](NC(=O)/C(=N\OC)c3csc(N)n3)[C@H]2SC1 [Cefpodoxime, cefpodoxime]
- Mean Cmax ([1]; in vivo, 100 mg): 1400 ng/mL
- Mean fCmax ([1]; in vivo, 100 mg): 1.1 µg/mL
- Mean Cmax ([1]; in vivo, 200 mg): 2300 ng/mL
- Mean fCmax ([1]; in vivo, 200 mg): 1.8 µg/mL
- Mean Cmax ([1]; in vivo, 400 mg): 3900 ng/mL
- half-life ([1]; in vivo, 800 mg): 2.9 h
- fCmax ([1]; in vivo, 800 mg): approximately 5.4 μg/mL
- bioavailability ([1]; in vivo): 40-90%
- Elimination half-life ([1]; in vivo): 2.1 to 2.8 h
- Mean unbound plasma concentration following one elimination half-life ([1]; in vivo): 1.55 (400 mg) μg/mL
- IC50 [2]: 24 µM
- Protein binding (% bound) ([3]; plasma): 21-29 (plasma) % bound
- Protein binding (% bound) ([3]; serum): 22-33 (serum); % bound
- MIC ([4]; AEAE1027 (CTX-M-14)): > 64 µg/mL
- MIC ([4]; AEAE1029 (CTX-M-15)): > 64 µg/mL
- MIC [5]: 0.5 µg/mL
- MIC ([6]; AKPN1159 (SHV-12)): 64 µg/mL
- MIC ([6]; AKPN1161 (SHV-7)): 16 µg/mL
- MIC ([6]; AKPN1162 (CTX-M-15, SHV-12)): > 64 µg/mL
- MIC ([6]; AKPN1166 (CTX-M-14, SHV-12)): > 64 µg/mL
- MIC ([6]; AKPN1167 (SHV-2)): > 64 µg/mL
- MIC ([7]; ACFR1034 (CTX-M-15, TEM-OSBL)): > 64 µg/mL
- MIC ([7]; ACFR1035 (CTX-M-3, TEM-OSBL)): > 64 µg/mL
- MIC ([8]; AECO001 (no ESBL)): 0.5 µg/mL
- MIC ([8]; AECO1078 (CTX-M-15)): > 64 µg/mL
- MIC ([8]; AECO1147 (CTX-M-15)): > 64 µg/mL
- MIC ([8]; AECO1157 (CTX-M-15, TEM-OSBL)): > 64 µg/mL
- MIC ([8]; AECO1159 (CTX-M-15)): > 64 µg/mL
- MIC ([8]; AECO1169 (CTX-M-1, TEM-OSBL)): > 64 µg/mL
- MIC ([8]; AECO1172 (CTX-M-14)): > 64 µg/mL
- MIC ([9]; AKOX1005 (SHV-2, TEM-1, DHA-1)): 32 µg/mL
- MIC ([9]; AKOX1009 (CTX-M-15)): > 64 µg/mL
- MIC [10]: > 64 µg/mL
- MIC CTX-M-15 Strain + CLV [10]: 4 µg/mL
- MIC ([11]; AECL1065 (CTX-M-15)): > 64 µg/mL
- MIC ([11]; AECL1067 (CTX-M-3)): > 64 µg/mL

Molecule: C[C@@H](O)[C@H]1C(=O)N2C(C(=O)O)=C(S[C@@H]3CN[C@H](C(=O)N(C)C)C3)[C@H](C)[C@H]12 [Meropenem, meropenem]
- MIC ([12]; AECO1156 (CTXM-15, TEM-OSBL)): 0.03 µg/mL (≈ 0.0782 µM)
- MIC ([12]; AECO1157 (CTXM-15, TEM-OSBL)): 0.03 µg/mL (≈ 0.0782 µM)
- MIC ([12]; AECO1162 (CTX-M-14)): 0.03 µg/mL (≈ 0.0782 µM)
- MIC ([12]; AECO1166 (SHV-12)): 0.016 µg/mL (≈ 0.0417 µM)
- Change in Log10 CFU/mL From Inoculum (0 hr) ([13]; AKPN1159, 2 h): −2.64 Log10 CFU/mL
- Change in Log10 CFU/mL From Inoculum (0 hr) ([13]; AKPN1159, 4 h): −4.16 Log10 CFU/mL
- Change in Log10 CFU/mL From Inoculum (0 hr) ([13]; AKPN1159, 6 h): −4.73 Log10 CFU/mL
- Change in Log10 CFU/mL From Inoculum (0 hr) ([13]; AKPN1159, 24 h): −6.33 Log10 CFU/mL
- Change in Log10 CFU/mL From Inoculum (0 hr) ([13]; AKPN1162, 2 h): −3.01 Log10 CFU/mL
- Change in Log10 CFU/mL From Inoculum (0 hr) ([13]; AKPN1162, 4 h): −3.58 Log10 CFU/mL
- Change in Log10 CFU/mL From Inoculum (0 hr) ([13]; AKPN1162, 6 h): −3.66 Log10 CFU/mL
- Change in Log10 CFU/mL From Inoculum (0 hr) ([13]; AKPN1162, 24 h): −6.48 Log10 CFU/mL
- MIC ([14]; AKP1162 (SHV-12, CTX-M-15)): 0.06 µg/mL (≈ 0.156 µM)
- MIC ([14]; AKPN1159 (SHV-12)): 0.03 µg/mL (≈ 0.0782 µM)
- MIC50 [15]: 0.03 µg/mL (≈ 0.0782 µM)
- EUCAST % I ([15]; EUCAST 2016 criteria): 3.3%
- MIC90 ([15]; read-out: MIC90): 0.12 µg/mL (≈ 0.313 µM)
- bacterial CFU, bladder [16]: 3.75 log10 CFU
- bacterial CFU, kidneys [16]: 3.11 log10 CFU
- bacterial CFU, urine [16]: 3.25 log10 CFU
- Change in Log10 CFU/mL From Inoculum (0 hr) ([17]; AECO1156, 2 h): −3.41 Log10 CFU/mL
- Change in Log10 CFU/mL From Inoculum (0 hr) ([17]; AECO1156, 4 h): −4.08 Log10 CFU/mL
- Change in Log10 CFU/mL From Inoculum (0 hr) ([17]; AECO1156, 6 h): −5.69 Log10 CFU/mL
- Change in Log10 CFU/mL From Inoculum (0 hr) ([17]; AECO1156, 24 h): −5.69 Log10 CFU/mL
- Change in Log10 CFU/mL From Inoculum (0 hr) ([17]; AECO1157, 2 h): −3.49 Log10 CFU/mL
- Change in Log10 CFU/mL From Inoculum (0 hr) ([17]; AECO1157, 4 h): −4.98 Log10 CFU/mL
- Change in Log10 CFU/mL From Inoculum (0 hr) ([17]; AECO1157, 6 h): −4.38 Log10 CFU/mL
- Change in Log10 CFU/mL From Inoculum (0 hr) ([17]; AECO1157, 24 h): −5.98 Log10 CFU/mL
- Change in Log10 CFU/mL From Inoculum (0 hr) ([17]; AECO1162, 2 h): −2.91 Log10 CFU/mL
- Change in Log10 CFU/mL From Inoculum (0 hr) ([17]; AECO1162, 4 h): −3.42 Log10 CFU/mL
- Change in Log10 CFU/mL From Inoculum (0 hr) ([17]; AECO1162, 6 h): −4.39 Log10 CFU/mL
- Change in Log10 CFU/mL From Inoculum (0 hr) ([17]; AECO1162, 24 h): −6.08 Log10 CFU/mL
- Change in Log10 CFU/mL From Inoculum (0 hr) ([17]; AECO1166, 2 h): −4.17 Log10 CFU/mL
- Change in Log10 CFU/mL From Inoculum (0 hr) ([17]; AECO1166, 4 h): −6.08 Log10 CFU/mL
- Change in Log10 CFU/mL From Inoculum (0 hr) ([17]; AECO1166, 6 h): −6.08 Log10 CFU/mL
- Change in Log10 CFU/mL From Inoculum (0 hr) ([17]; AECO1166, 24 h): −6.08 Log10 CFU/mL
- MIC90 [18]: 0.03 µg/mL (≈ 0.0782 µM)

Molecule: CTX-M-15 (Escherichia coli)
- Km [19]: 13 (10-16) μM
- kcat [19]: 50 s⁻¹
- kcat/Km [19]: 3.8e+06 M⁻¹ s⁻¹
- Km [20]: 14 (11-18) μM
- kcat [20]: 2 s⁻¹
- kcat/Km [20]: 140000 M⁻¹ s⁻¹
